Source: patent US20070259329A1, “Anergy-inducing cellular composition” (BioVerde. Inc., priority 2006, published 2007)
Marks after values point to notes of the source that are not given here.

Legend:
CD3ε = molecular target: T1, CD3ε (Mus musculus, UniProt P22646); test: Lymphocyte marker analysis by flow cytometry, CD3ε epitope; type: cell-based, murine (C57BI/6 splenocytes); conditions: for percent expression of cell surface molecule CD3ε: epitope-specific antibody, average of triplicate; for average percent suppression in epitope detection, CD3ε: relative to untreated control (0 ppm)
T1 construct: endogenous in cells; host or cells: murine splenocytes (C57Bl/6)
Protocol: (§1) To evaluate the action of EGCG in rendering cells to become anergy-inducing, murine splenocytes were used as a model system. Splenocytes were collected from BALB/c (H2 K^b) and C57BI/6 (H2 K^d) female mice of 8 to 13 weeks of age in HBSS (BioWhittaker) with 1% FCS. Cells were washed with HBSS (1% FCS) and treated with the media solution which contains RPMI 1640 (Sigma-Aldrich), 10 mM HEPES (Dojindo), and various concentrations of EGCG (98% purity, Roche) described in the examples.
(§2) Flow cytometric analyses of surface epitopes for the control and EGCG-treated splenocytes were performed using a series of fluorescence-labeled monoclonal anti-mouse CD and MHC and corresponding isotype control antibodies (eBioscience: CD2, CD36, CD4, CD11a, CD25, CD 28, CD 49d and CD80; Pharmingen: TCRαβ and MHC II). Murine splenocytes (C57BI/6) were treated with red blood cell lysis buffer (eBioscience) for 5 min prior to EGCG treatments. Immediately following EGCG-treatments, the splenocytes were washed with RPMI 1640 (10% FCS) and a staining buffer (eBioscience) at 4 degree C. Each splenocyte sample was reconstituted as a 50 μl aliquot in the same staining buffer and subject to antibody labeling. After washing twice the samples with the staining buffer, a minimum of 10,000 events per sample was collected on a Becton Dickinson FACScan flow cytometer.

CD11a = molecular target: T2, CD11a (Mus musculus, UniProt P24063); test: Lymphocyte marker analysis by flow cytometry, CD11a epitope; type: cell-based, murine (C57BI/6 splenocytes); conditions: for percent expression of cell surface molecule CD11a: epitope-specific antibody, average of triplicate; for average percent suppression in epitope detection, CD11a: relative to untreated control (0 ppm)
T2 construct: endogenous in cells; host or cells: murine splenocytes (C57Bl/6)
Protocol: as §1, §2

CD4 = molecular target: T3, CD4 (Mus musculus, UniProt P06332); test: Lymphocyte marker analysis by flow cytometry, CD4 epitope; type: cell-based, murine (C57BI/6 splenocytes); conditions: for percent expression of cell surface molecule CD4: epitope-specific antibody, average of triplicate; for average percent suppression in epitope detection, CD4: relative to untreated control (0 ppm)
T3 construct: endogenous in cells; host or cells: murine splenocytes (C57Bl/6)
T3 sequence (P06332 27-457): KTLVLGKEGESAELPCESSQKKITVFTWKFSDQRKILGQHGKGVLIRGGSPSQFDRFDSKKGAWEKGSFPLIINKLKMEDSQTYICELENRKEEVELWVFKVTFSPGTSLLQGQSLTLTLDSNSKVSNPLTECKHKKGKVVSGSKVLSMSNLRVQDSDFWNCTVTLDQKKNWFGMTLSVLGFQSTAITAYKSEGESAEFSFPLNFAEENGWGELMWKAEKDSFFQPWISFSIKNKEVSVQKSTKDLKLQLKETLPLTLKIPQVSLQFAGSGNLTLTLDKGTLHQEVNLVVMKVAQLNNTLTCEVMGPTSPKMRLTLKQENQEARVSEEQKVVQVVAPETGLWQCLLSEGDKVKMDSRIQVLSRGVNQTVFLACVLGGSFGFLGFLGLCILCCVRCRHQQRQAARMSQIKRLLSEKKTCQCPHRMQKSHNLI
Protocol: as §1, §2

CD25 = molecular target: T4, CD25 (Mus musculus, UniProt P01590); test: Lymphocyte marker analysis by flow cytometry, CD25 epitope; type: cell-based, murine (C57BI/6 splenocytes); conditions: for percent expression of cell surface molecule CD25: epitope-specific antibody, average of triplicate; for average percent suppression in epitope detection, CD25: relative to untreated control (0 ppm)
T4 construct: endogenous in cells; host or cells: murine splenocytes (C57Bl/6)
T4 sequence (P01590 22-268): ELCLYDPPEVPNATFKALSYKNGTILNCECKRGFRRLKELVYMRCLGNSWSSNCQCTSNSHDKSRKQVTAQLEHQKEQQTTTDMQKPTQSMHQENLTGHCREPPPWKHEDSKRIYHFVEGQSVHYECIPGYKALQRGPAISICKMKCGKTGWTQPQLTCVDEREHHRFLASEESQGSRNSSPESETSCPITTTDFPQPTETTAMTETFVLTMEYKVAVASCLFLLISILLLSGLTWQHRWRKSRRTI
Protocol: as §1, §2

CD49d = molecular target: T5, CD49d (Mus musculus, UniProt Q00651); test: Lymphocyte marker analysis by flow cytometry, CD49d epitope; type: cell-based, murine (C57BI/6 splenocytes); conditions: for percent expression of cell surface molecule CD49d: epitope-specific antibody, average of triplicate; for average percent suppression in epitope detection, CD49d: relative to untreated control (0 ppm)
T5 construct: endogenous in cells; host or cells: murine splenocytes (C57Bl/6)
T5 sequence (Q00651 41-1039): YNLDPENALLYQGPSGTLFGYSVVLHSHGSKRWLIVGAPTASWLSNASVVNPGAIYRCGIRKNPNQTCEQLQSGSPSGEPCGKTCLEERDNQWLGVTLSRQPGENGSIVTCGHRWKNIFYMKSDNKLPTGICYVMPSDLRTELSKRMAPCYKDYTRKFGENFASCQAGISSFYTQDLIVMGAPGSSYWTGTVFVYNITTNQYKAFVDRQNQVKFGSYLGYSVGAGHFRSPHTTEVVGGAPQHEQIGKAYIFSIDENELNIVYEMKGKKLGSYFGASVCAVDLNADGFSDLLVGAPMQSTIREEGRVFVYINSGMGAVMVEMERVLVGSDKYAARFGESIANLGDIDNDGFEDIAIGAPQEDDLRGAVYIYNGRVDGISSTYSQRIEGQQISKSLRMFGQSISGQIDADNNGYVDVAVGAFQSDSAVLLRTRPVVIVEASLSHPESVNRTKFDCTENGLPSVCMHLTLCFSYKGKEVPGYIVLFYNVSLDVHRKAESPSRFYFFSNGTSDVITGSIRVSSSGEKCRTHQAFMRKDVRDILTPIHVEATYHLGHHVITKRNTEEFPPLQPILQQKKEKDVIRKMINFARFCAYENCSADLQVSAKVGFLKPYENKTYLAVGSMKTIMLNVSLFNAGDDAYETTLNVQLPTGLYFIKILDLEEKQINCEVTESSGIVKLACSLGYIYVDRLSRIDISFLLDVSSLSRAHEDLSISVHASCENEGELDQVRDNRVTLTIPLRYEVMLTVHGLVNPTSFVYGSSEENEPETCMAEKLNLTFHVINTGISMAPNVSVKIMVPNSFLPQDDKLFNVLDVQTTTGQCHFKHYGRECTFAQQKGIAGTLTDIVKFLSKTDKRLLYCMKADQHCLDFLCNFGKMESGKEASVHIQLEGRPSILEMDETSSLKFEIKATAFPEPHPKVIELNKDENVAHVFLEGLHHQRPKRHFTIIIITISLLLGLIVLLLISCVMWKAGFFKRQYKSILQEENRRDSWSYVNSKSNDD
Protocol: as §1, §2

[1] = tested on: BALB/c (stimulator cells) and C57BI/6 (responder cells) splenocytes; test: One-way mixed lymphocyte reaction (MLR); type: cell-based, murine; conditions: stimulator or responder cells treated with 100, 200 ppm EGCG, 4-8 degree C., 1 hour, 72 hours culture, FIG. 3

T2 sequence (P24063 24-1162): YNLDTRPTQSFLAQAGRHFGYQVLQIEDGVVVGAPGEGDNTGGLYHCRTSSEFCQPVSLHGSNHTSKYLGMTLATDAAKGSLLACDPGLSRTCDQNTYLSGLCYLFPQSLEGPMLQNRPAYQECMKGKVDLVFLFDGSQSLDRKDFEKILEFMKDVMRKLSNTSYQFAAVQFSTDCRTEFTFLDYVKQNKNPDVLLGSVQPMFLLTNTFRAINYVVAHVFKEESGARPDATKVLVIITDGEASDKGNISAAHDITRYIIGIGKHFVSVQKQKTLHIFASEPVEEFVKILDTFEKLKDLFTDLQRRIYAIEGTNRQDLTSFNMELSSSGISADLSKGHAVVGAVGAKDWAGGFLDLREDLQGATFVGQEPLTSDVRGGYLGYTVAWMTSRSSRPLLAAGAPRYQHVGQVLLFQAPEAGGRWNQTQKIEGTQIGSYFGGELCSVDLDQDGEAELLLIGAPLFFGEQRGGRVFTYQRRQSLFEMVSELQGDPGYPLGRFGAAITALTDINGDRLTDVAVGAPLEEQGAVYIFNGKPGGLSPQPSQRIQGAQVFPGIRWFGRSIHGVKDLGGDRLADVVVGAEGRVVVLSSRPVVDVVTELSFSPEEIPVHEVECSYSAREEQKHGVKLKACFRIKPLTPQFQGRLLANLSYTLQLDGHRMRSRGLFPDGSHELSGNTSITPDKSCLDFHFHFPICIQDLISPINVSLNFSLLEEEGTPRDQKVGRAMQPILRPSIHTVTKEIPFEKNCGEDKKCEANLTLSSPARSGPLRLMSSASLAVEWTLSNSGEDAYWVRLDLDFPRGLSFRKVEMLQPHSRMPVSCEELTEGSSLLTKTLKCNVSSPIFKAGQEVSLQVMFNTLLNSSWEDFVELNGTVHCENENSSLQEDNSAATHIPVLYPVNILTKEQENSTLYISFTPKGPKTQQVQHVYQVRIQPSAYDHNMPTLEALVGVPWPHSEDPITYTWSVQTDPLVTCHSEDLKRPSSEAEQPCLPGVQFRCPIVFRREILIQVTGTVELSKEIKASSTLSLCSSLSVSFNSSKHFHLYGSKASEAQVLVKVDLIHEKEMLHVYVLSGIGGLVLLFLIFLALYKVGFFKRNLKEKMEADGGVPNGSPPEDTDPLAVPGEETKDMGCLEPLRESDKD
T2 sequence (P11835 24-771 partner): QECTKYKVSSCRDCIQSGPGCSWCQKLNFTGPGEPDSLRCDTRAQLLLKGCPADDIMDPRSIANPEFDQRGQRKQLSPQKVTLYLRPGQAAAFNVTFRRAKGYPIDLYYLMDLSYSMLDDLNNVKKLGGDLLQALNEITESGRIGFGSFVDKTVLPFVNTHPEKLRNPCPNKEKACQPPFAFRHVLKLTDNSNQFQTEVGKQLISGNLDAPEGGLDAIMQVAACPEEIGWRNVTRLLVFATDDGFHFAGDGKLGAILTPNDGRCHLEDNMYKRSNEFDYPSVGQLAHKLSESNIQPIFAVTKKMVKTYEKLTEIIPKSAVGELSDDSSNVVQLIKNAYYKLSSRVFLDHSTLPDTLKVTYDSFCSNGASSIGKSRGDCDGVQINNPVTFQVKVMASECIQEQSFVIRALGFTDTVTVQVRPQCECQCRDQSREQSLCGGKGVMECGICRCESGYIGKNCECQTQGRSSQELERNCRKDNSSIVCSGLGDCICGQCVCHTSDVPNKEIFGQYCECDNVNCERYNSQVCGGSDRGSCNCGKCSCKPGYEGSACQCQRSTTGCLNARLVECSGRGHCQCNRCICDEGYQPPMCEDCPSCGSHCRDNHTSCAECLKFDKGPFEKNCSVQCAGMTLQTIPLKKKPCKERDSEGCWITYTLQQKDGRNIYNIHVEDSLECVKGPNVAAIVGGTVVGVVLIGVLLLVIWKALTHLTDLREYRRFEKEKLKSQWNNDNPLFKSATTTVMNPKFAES
T1 sequence (P22646 22-189): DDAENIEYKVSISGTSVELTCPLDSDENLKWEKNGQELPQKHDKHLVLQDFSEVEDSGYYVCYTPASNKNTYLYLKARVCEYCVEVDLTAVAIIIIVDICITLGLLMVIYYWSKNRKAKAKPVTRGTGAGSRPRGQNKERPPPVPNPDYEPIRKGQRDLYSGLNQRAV
T1 sequence (P11942 23-182 partner): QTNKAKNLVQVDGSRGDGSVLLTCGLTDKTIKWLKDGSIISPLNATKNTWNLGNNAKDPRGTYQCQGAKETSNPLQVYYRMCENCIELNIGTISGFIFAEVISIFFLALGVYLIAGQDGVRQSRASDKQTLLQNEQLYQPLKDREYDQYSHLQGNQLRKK
T1 sequence (P04235 22-173 partner): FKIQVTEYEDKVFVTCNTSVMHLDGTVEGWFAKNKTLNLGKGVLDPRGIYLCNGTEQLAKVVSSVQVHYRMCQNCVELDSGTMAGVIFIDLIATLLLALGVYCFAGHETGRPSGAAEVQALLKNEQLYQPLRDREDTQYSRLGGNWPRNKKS
T1 sequence (P24161 22-164 partner): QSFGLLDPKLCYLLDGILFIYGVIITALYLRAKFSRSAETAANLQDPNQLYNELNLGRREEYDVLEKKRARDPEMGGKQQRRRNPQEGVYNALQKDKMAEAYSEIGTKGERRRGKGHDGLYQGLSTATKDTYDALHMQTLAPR

Question: (−)-epigallocatechin-3-o-gallate [EGCG] was tested. Which “dose dependence of reduction in epitope detection, CD3ε” value (CD3ε; 100 vs 200 ppm) did it give?
Answer: The value was “dose-dependent reduction”.

Question: And the “percent expression of cell surface molecule CD3ε” value (CD3ε; EGCg 100 ppm)?
Answer: Its value is 20.2%.

Question: What about the “average percent suppression in epitope detection, CD3ε” value (CD3ε; EGCg 100 ppm) of the same substance?
Answer: The value was “(37.5)* percent”.

Question: And the “percent expression of cell surface molecule CD3ε” value (CD3ε; EGCg 200 ppm)?
Answer: Its value is 5.6%.

Question: And the “average percent suppression in epitope detection, CD3ε” value (CD3ε; EGCg 200 ppm)?
Answer: The value was “(82.7)** percent”.

Question: And the “blocking of CD3ε by EGCG” value (CD3ε; summary of TABLE 1)?
Answer: The value was “strongly blocked”.

Question: What about the “percent expression of cell surface molecule CD11a” value (CD11a; EGCg 100 ppm) of the same substance?
Answer: The value was 90.1%.

Question: And the “average percent suppression in epitope detection, CD11a” value (CD11a; EGCg 100 ppm)?
Answer: The value was “(4.1)** percent”.

Question: What about the “percent expression of cell surface molecule CD11a” value (CD11a; EGCg 200 ppm) of the same substance?
Answer: Its value is 90.0%.

Question: And the “average percent suppression in epitope detection, CD11a” value (CD11a; EGCg 200 ppm)?
Answer: Its value is “(4.3)** percent”.

Question: And the “percent expression of cell surface molecule CD4” value (CD4; EGCg 100 ppm)?
Answer: The value was 21.1%.

Question: What about the “average percent suppression in epitope detection, CD4” value (CD4; EGCg 100 ppm) of the same substance?
Answer: The value was “(12.1)* percent”.

Question: What about the “percent expression of cell surface molecule CD4” value (CD4; EGCg 200 ppm) of the same substance?
Answer: The value was 20.8%.

Question: What about the “average percent suppression in epitope detection, CD4” value (CD4; EGCg 200 ppm) of the same substance?
Answer: Its value is “(13.3)* percent”.

Question: What about the “percent expression of cell surface molecule CD25” value (CD25; EGCg 100 ppm) of the same substance?
Answer: Its value is 11.6%.

Question: And the “average percent suppression in epitope detection, CD25” value (CD25; EGCg 100 ppm)?
Answer: The value was “(16.5)^n.s. percent”.

Question: And the “percent expression of cell surface molecule CD25” value (CD25; EGCg 200 ppm)?
Answer: Its value is 10.8%.

Question: What about the “average percent suppression in epitope detection, CD25” value (CD25; EGCg 200 ppm) of the same substance?
Answer: Its value is “(22.3)* percent”.

Question: What about the “blocking of CD25 by EGCG” value (CD25; summary of TABLE 1) of the same substance?
Answer: Its value is “blocked”.

Question: What about the “percent expression of cell surface molecule CD49d” value (CD49d; EGCg 100 ppm) of the same substance?
Answer: The value was 19.7%.

Question: What about the “average percent suppression in epitope detection, CD49d” value (CD49d; EGCg 100 ppm) of the same substance?
Answer: Its value is “(54.1)** percent”.

Question: What about the “percent expression of cell surface molecule CD49d” value (CD49d; EGCg 200 ppm) of the same substance?
Answer: The value was 20.5%.

Question: What about the “average percent suppression in epitope detection, CD49d” value (CD49d; EGCg 200 ppm) of the same substance?
Answer: The value was “(52.2)** percent”.

Question: And the “blocking of CD49d by EGCG” value (CD49d; summary of TABLE 1)?
Answer: The value was “blocked”.

Question: What about the proliferation of splenocytes [1] of the same substance?
Answer: Its proliferation of splenocytes is “significantly decreased”.
